Earlier results as cited in patent publication US20020137787A1, “Prevention or treatment of complications related to non-insulin dependent diabetes mellitus or type 2 diabetes mellitus” (priority 2001, published 2002).
Read-outs that look alike come from different tables or passages of the source.

What was measured:
[1] = patients taking Clozapine

## CNCCC(Oc1ccc(C(F)(F)F)cc1)c1ccccc1 (stereo not drawn) [Fluoxetine]
Overweight depressed patients
  effect on body weight: weight loss
reported
  effects on blood glucose and lipid profiles: positive effects

## CN1CCN(C2=Nc3cc(Cl)ccc3Nc3ccccc32)CC1 [Clozapine]
[1]
  effect on body weight: increased weight
